Source: US20240342186A1, “PYRIDINE DERIVATIVES WITH N-LINKED CYCLIC SUBSTITUENTS AS cGAS INHIBITORS” (Boehringer Ingelheim International GmbH, priority 2021, published 2024)
Read-outs that look alike come from different tables or passages of the source.

Assays:
[1] = molecular target: cGAS (Homo sapiens (Human), UniProt Q8N884); assay: Human cGAS enzyme assay (hcGAS IC50, in vitro), cGAMP formation by RapidFire MS; type: biochemical;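 also: enzyme activated by 45 bp dsDNA with GTP and ATP (30 µM each), 60 min compound pre-incubation then 90 min reaction, cGAMP relative to cyclic-di-GMP internal standard, 8-point dilutions up to 10 µM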
cGAS, sequence (Q8N884 whole entry): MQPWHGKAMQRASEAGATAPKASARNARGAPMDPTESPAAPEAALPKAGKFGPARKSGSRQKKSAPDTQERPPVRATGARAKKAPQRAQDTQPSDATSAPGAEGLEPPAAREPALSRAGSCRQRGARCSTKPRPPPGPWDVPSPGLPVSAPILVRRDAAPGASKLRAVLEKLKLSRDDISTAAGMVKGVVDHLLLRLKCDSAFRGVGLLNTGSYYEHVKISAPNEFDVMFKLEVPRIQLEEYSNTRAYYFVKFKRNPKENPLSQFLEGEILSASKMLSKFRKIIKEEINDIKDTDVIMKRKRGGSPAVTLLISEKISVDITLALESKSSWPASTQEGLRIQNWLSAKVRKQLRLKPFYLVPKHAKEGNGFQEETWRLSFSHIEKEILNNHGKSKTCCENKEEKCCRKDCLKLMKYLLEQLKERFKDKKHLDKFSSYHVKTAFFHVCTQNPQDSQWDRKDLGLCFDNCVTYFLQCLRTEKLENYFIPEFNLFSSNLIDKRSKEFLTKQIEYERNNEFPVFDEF

[2] = tested on: cellular cGAS activity in baculovirus-stimulated THP1-Dual cells (IRF dependent Lucia luciferase reporter); assay: Human cGAS cell assay: inhibition of IFN induction in virus-stimulated THP1 cells (THP1(vir) IC50); type: cell-based; details: Homo sapiens, THP1-Dual
Procedure, shortened: (§1)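 THP1-Dual cells with IRF-dependent Lucia luciferase reporter, stimulated by empty baculovirus (dsDNA delivery activating cGAS) or, for the counter assay, directly by cGAMP. 5000 cells/well, 8 concentrations from 10 μM top, 1% DMSO, 18 h at 37 °C; luminescence read, IC50 by 4-parameter logistic fit versus unstimulated low control.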

[3] = tested on: cGAMP-stimulated THP1-Dual cells (pathway directly downstream of cGAS); assay: cGAMP stimulated counter cell assay: inhibition of IFN induction in cGAMP-stimulated THP1 cells (THP1(cGAMP) IC50); type: cell-based, human; details: for IC50: Homo sapiens, THP1-Dual, read-out: THP1(cGAMP) IC50 (converted); for Ratio THP1(cGAMP) IC50 / THP1(vir) IC50: selectivity for cGAS inhibition
Procedure, shortened: as §1

[4] = tested on: cellular cGAS activity in dsDNA-stimulated human whole blood; assay: Human whole blood assay (hWB IC50): IFNα2α production after dsDNA transfection; type: cell-based
Procedure, shortened: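 Citrated blood from healthy donors preincubated 60 min at room temperature with compound (top 10 µM, ~1:5 steps, 0.1% DMSO), then transfected with dsDNA/Fugene and incubated 22 h at 37 °C. Plasma IFNα2α measured by MSD immunoassay; IC50 from 4-parameter fit of % control (stimulated vs unstimulated).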

[5] = biochemical (in vitro) cGAS inhibition
[6] = inhibition of IFN induction in virus-stimulated THP1 cells, read-out: THP1(vir) IC50
[7] = inhibition of IFN induction in cGAMP-stimulated THP1 cells
[8] = inhibition of IFN induction in dsDNA-stimulated human whole blood

Structure (SMILES) | IC50 [1, 5] | IC50 [2, 6] | IC50 [3, 7] | Ratio THP1(cGAMP) IC50 / THP1(vir) IC50 [3] | IC50 [4, 8] | IC50 ([1]; biochemical (in vitro), human cGAS, 45 bp dsDNA, GTP/ATP) | IC50 ([2]; read-out: THP1(vir) IC50, virus-stimulated THP1 cells, IFN induction) | IC50 ([3]; cGAMP-stimulated THP1 cells, counter assay) | IC50 ([4]; dsDNA-stimulated human whole blood, IFN induction)
C[C@@H]1N(c2cc(Cl)cnc2O[C@H]2C[C@@H](C(=O)O)N(c3nc(C(F)(F)F)nc4c3oc3ccccc34)C2)CCOC12COC2 [Example 1.13] | 4 nM | 40 nM | 16400 nM | 413 | 102 nM |  |  |  | 
CC1(C#N)CN(c2cc(Cl)cnc2O[C@H]2C[C@@H](C(=O)O)N(c3nc(C(F)F)nc4c3oc3ccccc34)C2)CCO1 (stereo partly shown) [Example 1.02] | 4 nM | 697 nM | 21900 nM | 31 | 3440 nM |  |  |  | 
C#Cc1cnc(O[C@H]2C[C@@H](C(=O)O)N(c3nc(C(F)(F)F)nc4c3oc3cc(CC)ccc34)C2)c(N2CCOC3(COC3)[C@@H]2C)c1 [Example 2.09] | 6 nM | 31 nM | 5180 nM | 166 | 37 nM |  |  |  | 
CC#Cc1cnc(O[C@H]2C[C@@H](C(=O)O)N(c3nc(C(F)(F)F)nc4c3oc3ccccc34)C2)c(N2CCOC3(CC3)[C@@H]2C)c1 [Example 6.03] | 7 nM | 5 nM | 10900 nM | 2273 | 95 nM |  |  |  | 
CC#Cc1cnc(O[C@H]2C[C@@H](C(=O)O)N(c3nc(C(F)F)nc4c3oc3ccccc34)C2)c(N2CCOC3(COC3)[C@@H]2C)c1 [Example 6.02] | 6 nM | < 5 nM | > 16000 nM | >3000 | 8 nM |  |  |  | 
CC1(C#N)CN(c2cc(Cl)cnc2O[C@H]2C[C@@H](C(=O)O)N(c3nc(C(F)(F)F)nc4c3oc3ccccc34)C2)CCO1 (stereo partly shown) [Example 1.03] | 7 nM | 399 nM | 15100 nM | 38 | 8450 nM |  |  |  | 
C#Cc1cnc(O[C@H]2C[C@@H](C(=O)O)N(c3nc(C)nc4c3oc3cc(F)ccc34)C2)c(N2CCOC3(COC3)[C@@H]2C)c1 [Example 2.08] | 3 nM | < 5 nM | 18800 nM | 3490 | 6 nM |  |  |  | 
C#Cc1cnc(O[C@H]2C[C@@H](C(=O)OC)N(c3nc(C(F)(F)F)nc4c3oc3ccccc34)C2)c(N2CCOC3(COC3)[C@@H]2C)c1 [Example P03] |  |  |  |  |  | 9620 nM | 188 nM | 22800 nM | 1090 nM
CC(=O)Nc1ccc(-c2cnc(O[C@H]3C[C@@H](C(=O)O)N(c4nc(C(F)(F)F)nc5c4oc4ccccc45)C3)c(N3CCOC4(COC4)[C@@H]3C)c2)cn1 [Example 3.10] | 8 nM | 5 nM | 7910 nM | 1713 | 10 nM |  |  |  | 
C#Cc1cnc(O[C@H]2C[C@@H](C(=O)O)N(c3nc(CCl)nc4c3oc3ccccc34)C2)c(N2CCOC3(COC3)[C@@H]2C)c1 [Example 2.10] | 3 nM | 5 nM | 2750 nM | 533 | 24 nM |  |  |  | 
C[C@@H]1N(c2cc(-c3ccnc(C#N)c3)cnc2O[C@H]2C[C@@H](C(=O)O)N(c3nc(C(F)F)nc4c3oc3ccccc34)C2)CCOC12COC2 [Example 3.21] | 4 nM | 24 nM | 11700 nM | 483 | 55 nM |  |  |  | 
C[C@H]1COCCN1c1cc(-c2ccncc2F)cnc1O[C@H]1C[C@@H](C(=O)O)N(c2nc(C(F)(F)F)nc3c2oc2ccccc23)C1 [Example 3.03] | 7 nM | 899 nM | 12800 nM | 14 | 2120 nM |  |  |  | 
CNc1cncc(-c2cnc(O[C@H]3C[C@@H](C(=O)O)N(c4nc(C(F)(F)F)nc5c4oc4ccccc45)C3)c(N3CCOC4(COC4)[C@@H]3C)c2)c1 [Example 3.18] | 3 nM | 7 nM | 4760 nM | 645 | 44 nM |  |  |  | 
C#Cc1cnc(O[C@H]2C[C@@H](C(=O)O)N(c3nc(C(F)F)nc4c3oc3ccccc34)C2)c(N2CCCC3(COC3)[C@@H]2C)c1 [Example 1.23] | 4 nM | 10 nM | 10900 nM | 1134 | 12 nM |  |  |  | 
CSc1cnc(O[C@H]2C[C@@H](C(=O)O)N(c3nc(C(F)F)nc4c3oc3ccccc34)C2)c(N2CCOC3(COC3)[C@@H]2C)c1 [Example 9.01, (2S,4S)-1-[4-(difluoromethyl)-8-oxa-3,5-diazatricyclo[7.4.0.0^2,7]trideca-1(9),2(7),3,5,10,12-hexaen-6-yl]-4-({3-[(9S)-9-methyl-2,5-dioxa-8-azaspiro[3.5]nonan-8-yl]-5-(methylsulfanyl)pyridin-2-yl}oxy)pyrrolidine-2-carboxylic acid] | 6 nM | 16 nM | 19800 nM | 1254 | 38 nM |  |  |  | 
C#Cc1cnc(O[C@H]2C[C@@H](C(=O)O)N(c3nc(C)nc4c3oc3cc(C(F)F)ccc34)C2)c(N2CCOC3(COC3)[C@@H]2C)c1 [Example 2.06] | 4 nM | 63 nM | 11900 nM | 189 | 52 nM |  |  |  | 
C[C@@H]1N(c2cc(F)cnc2O[C@H]2C[C@@H](C(=O)O)N(c3nc(C(F)(F)F)nc4c3oc3ccccc34)C2)CCOC12COC2 [Example 1.34] | 3 nM | 19 nM | > 10000 nM | 514 | 51 nM |  |  |  | 
C[C@@H]1N(c2cc(Cl)cnc2O[C@H]2C[C@@H](C(=O)O)N(c3nc(C(F)F)nc4c3oc3ccccc34)C2)CCOC12COC2 [Example 1.09] | 2 nM | 19 nM | 22100 nM | 1169 | 19 nM |  |  |  | 
C#Cc1cnc(O[C@H]2C[C@@H](C(=O)O)N(c3nc(C(F)F)nc4c3oc3ccccc34)C2)c(N2CCC3(C[C@@H]2C)N=N3)c1 [Example 1.20] | 2 nM | 796 nM | > 16600 nM | >21 | 670 nM |  |  |  | 
C[C@@H]1N(c2cc(-c3cnn(C(F)(F)F)c3)cnc2O[C@H]2C[C@@H](C(=O)O)N(c3nc(C(F)(F)F)nc4c3oc3ccccc34)C2)CCOC12COC2 [Example 3.30] | 26 nM | 15 nM | 12600 nM | 829 | 84 nM |  |  |  | 
C[C@H]1COCCN1c1cc(-c2ccncc2)cnc1O[C@H]1C[C@@H](C(=O)O)N(c2nc(C(F)(F)F)nc3c2oc2ccccc23)C1 [Example 3.01, (2S,4S)-4-({5-[(3S)-3-methylmorpholin-4-yl]-[3,4′-bipyridin]-6-yl}oxy)-1-[4-(trifluoromethyl)-8-oxa-3,5-diazatricyclo[7.4.0.0^2,7]trideca-1(9),2(7),3,5,10,12-hexaen-6-yl]pyrrolidine-2-carboxylic acid] | 9 nM | 982 nM | > 16600 nM | >17 | 1610 nM |  |  |  | 
CNc1nccc(-c2cnc(O[C@H]3C[C@@H](C(=O)O)N(c4nc(C(F)F)nc5c4oc4ccccc45)C3)c(N3CCOC4(COC4)[C@@H]3C)c2)c1OC [Example 4.03] | 8 nM | 199 nM | 7870 nM | 40 | 78 nM |  |  |  | 
C[C@@H]1N(c2cc(-c3cccc(C(N)=O)c3)cnc2O[C@H]2C[C@@H](C(=O)O)N(c3nc(C(F)(F)F)nc4c3oc3ccccc34)C2)CCOC12COC2 [Example 3.13] | 9 nM | 25 nM | 8350 nM | 335 | 65 nM |  |  |  | 
C[C@@H]1N(c2cc(-c3cn(C)nn3)cnc2O[C@H]2C[C@@H](C(=O)O)N(c3nc(C(F)(F)F)nc4c3oc3ccccc34)C2)CCOC12COC2 [Example 8.01, (2S,4S)-4-{[5-(1-methyl-1H-1,2,3-triazol-4-yl)-3-[(95)-9-methyl-2,5-dioxa-8-azaspiro[3.5]nonan-8-yl]pyridin-2-yl]oxy}-1-[4-(trifluoromethyl)-8-oxa-3,5-diazatricyclo[7.4.0.0^2,7]trideca-1(9),2(7),3,5,10,12-hexaen-6-yl]pyrrolidine-2-carboxylic acid] | 5 nM | 11 nM | 14900 nM | 1366 | 21 nM |  |  |  | 
C[C@@H]1N(c2cc(-n3cccn3)cnc2O[C@H]2C[C@@H](C(=O)O)N(c3nc(C(F)(F)F)nc4c3oc3ccccc34)C2)CCOC12COC2 [Example 10.01, (2S,4S)-4-({3-[(95)-9-methyl-2,5-dioxa-8-azaspiro[3.5]nonan-8-yl]-5-(1H-pyrazol-1-yl)pyridin-2-yl}oxy)-1-[4-(trifluoromethyl)-8-oxa-3,5-diazatricyclo[7.4.0.0^2,7]trideca-1(9),2(7),3,5,10,12-hexaen-6-yl]pyrrolidine-2-carboxylic acid] | 5 nM | 10 nM | > 10000 nM | >1000 | 47 nM |  |  |  | 
